Reference: US12058996B2, “High subzero cryopreservation” (The General Hospital Corporation, priority 2017, dated 2024)

How the values were obtained:
[1] = tested on: Human Umbilical Vein Endothelial Cells (HUVEC); assay: Cryostage freeze-thaw of endothelial cell-coated microchannels (cell attachment, membrane integrity); assay type: cell-based; conditions: with Snomax
Protocol: Prior to coating with endothelial cells, microchannels were sonicated briefly (3 min in isopropanol; Branson 200, Branson Ultrasonics), and then rinsed with PBS. Channels were then coated with 1 mg/mL fibronectin (dissolved in sterile PBS, total of 10 μl) and incubated for 60 min at 37° C. After a priming step, HUVEC cells were trypsinized, counted, and re-suspended in EBM-2 complete media (˜10.0×10^6 cells per mL). Cells were subsequently introduced to the cell seeding port and incubated at 37° C. 5% CO2 for 30 min (FIG. 1A). Final constriction diameters of cellularized microchannels varied from ˜10 to 20 μm across the lengths of individual channels due to the presence of cellular nuclei along channel walls. Coated microchannels were then fed under continuous gravity flow using a pipet tip containing media and inserted into the delivery port to generate flow in the reverse direction from loading (FIG. 1A). Pipet tips (200 μl) filled with media provided an initial hydrostatic head of 2.5 cm H2O. Cells incubated at 37° C. 5% CO2 up to 3 days with daily replacement of tips with filled media before proceeding to experimentation. […] Control, unfrozen microchannels were stained with Calcein green (1:1000), Hoescht (H3570; 1:1000 v:v), and propidium iodide (4 μg/mL) for 20 min and imaged, while microchannels imaged prior to experimentation/freezing were only stained with Calcein green (1:1000). These experimental microchannels were subsequently stained after experimentation/freezing with Hoescht (H3570; 1:1000 v:v), and propidium iodide (4 μg/mL).
Endothelial cell-coated microchannels were prepared, and placed on the silver block of a FDCS196 cryostage (Linkam Scientific Instruments Ltd, London, UK), the temperature of which was controlled by the TMS 94 temperature controller with the accuracy of ±0.1° C. Microchannels bonded to glass slides were cut into individual devices so they would fit on the silver block of the Linkam cryostage. A PixeLINK PL-A662 camera (PixeLINK, Ottawa, Canada) was used to visualize ice formation and propagation. In all cases, ice nucleation temperature was recorded and ice propagation throughout the device was confirmed by direct visual inspection (FIG. 7). Prior to freezing, endothelial cell-coated microchannels in the 3-O-methyl-D-glucopyranose (3-OMG) experimental group were incubated with EBM-2 complete media supplemented with either 50 or 100 mM 3-OMG at 37° C. to promote intracellular transport of the glucose analog. Supplementation of 3-OMG in the basal media and incubation at 37° is an effective method for intracellular delivery of 3-OMG. […] Snomax (Snomax International, Englewood, CO, USA) was used as the model ice nucleator in this study (1 mg/mL). Microchannels were perfused with PBS containing ice nucleators and/or cryoprotectant agents for 10 min prior to beginning the cooling profile. During the freezing experiment, the temperature was first cooled at 10° C./min to 4° C. After thermal stabilization, a cooling rate of 1° C./min was applied until reaching the holding temperature. […] For microchannels which contained Snomax, ice was observed <−6° C. in all cases, and channels were cooled to −6, −10, or −20° C. At the lowest holding temperature, microchannels were held for 3-5 min before a rapid rewarming at +30° C./min (FIG. 1C). After rewarming, microchannels were stained with Hoescht (nuclear) and propidium iodide (membrane integrity) dissolved in EBM-2 complete media for 20 min and imaged, in which the cell membrane integrity was used as a discriminator of live and dead cells.
Cell attachment values were quantified by counting the total number of Hoechst positive cells (i.e. total number of cell nuclei) and dividing by the total number of channels (each device has maximum of 16 channels). Membrane integrity was quantified by counting the number of propidium iodide positive cells divided by the total number of Hoechst positive cells. […]

[2] = tested on: Human Umbilical Vein Endothelial Cells (HUVEC); assay: Endothelial cell attachment with CPAs without freezing (FIG. 9); assay type: cell-based; conditions: 100 mM 3-OMG, p=0.6995
Protocol: Prior to coating with endothelial cells, microchannels were sonicated briefly (3 min in isopropanol; Branson 200, Branson Ultrasonics), and then rinsed with PBS. Channels were then coated with 1 mg/mL fibronectin (dissolved in sterile PBS, total of 10 μl) and incubated for 60 min at 37° C. After a priming step, HUVEC cells were trypsinized, counted, and re-suspended in EBM-2 complete media (˜10.0×10^6 cells per mL). Cells were subsequently introduced to the cell seeding port and incubated at 37° C. 5% CO2 for 30 min (FIG. 1A). Final constriction diameters of cellularized microchannels varied from ˜10 to 20 μm across the lengths of individual channels due to the presence of cellular nuclei along channel walls. […]
Cell attachment values were quantified by counting the total number of Hoechst positive cells (i.e. total number of cell nuclei) and dividing by the total number of channels (each device has maximum of 16 channels). Membrane integrity was quantified by counting the number of propidium iodide positive cells divided by the total number of Hoechst positive cells. Cell attachment and membrane integrity are expressed as box-and-whiskers plots showing median, interquartile range, maxima, and minima (n=4-8). […]

[3] = pH change of storage solution on freezing (phenol red); assay type: physicochemical; conditions: phenol red in storage solution
Excerpt: The pH can change dramatically as a function of freezing and holding temperature. Depending on the components of the storage solution, the biologic sample can be exposed to an acidic or a basic environment. These changes can be determined by adding phenol red to the storage solution. […] This pH change is relevant and can affect the preservation media. To counter these fluctuations in pH, the goal is to introduce “counter ions” which can balance the pH change.

[4] = tested on: livers (parenchyma and endothelial cells)
Excerpt: In the experiments, endothelial damage occurred as a result of the loading process of high viscosity solutions. This liver was not frozen and was only subjected to the loading protocol with 10% glycerol as the main cryoprotectant.
A stepwise loading protocol was preformed to address this issue. The liver was sampled for histology and endothelial analysis immediately after CPA loading. Thus, all livers presented were not frozen/stored and had the independent damage of the loading protocol only. Furthermore, the loading protocol was redesigned with special consideration for the impact of dramatic changes in osmolality between distinct phases of CPA loading. Thus, a step-wise loading protocol was finalized.
The stepwise loading protocol was tested in the following way: (1) “Loading 1” refers to the 3-OMG loading phase which is essential for intracellular delivery of this CPA. 3-OMG is loaded using the subnormothermic cocktail containing a William's E media base supplemented with heparin, hydrocortisone, insulin, etc.
First, livers were continuously perfused with either 50 or 100 mM 3-OMG at subnormothermic temperatures for 60 minutes (“Loading 1”) and were immediately sampled for histology.
After the experiment was stopped, livers were sampled for histology.

SMILES: CO[C@H]1[C@H](O)[C@@H](CO)OC(O)[C@@H]1O (stereo partly drawn) [3-OMG, 3-O-methyl-D-glucopyranose]
- cell attachment ([1]; 50 mM 3-OMG, Thold −6° C.): 33.2±9.1 cells/lane
- percent PI positive cells (membrane integrity) ([1]; 50 mM 3-OMG, Thold −6° C.): 7.4±3.7%
- cell attachment ([1]; 50 mM 3-OMG, Thold −10° C.): 15.1±8.2 cells/lane
- percent PI positive cells (membrane integrity) ([1]; 50 mM 3-OMG, Thold −10° C.): 38.1±7.5%
- cell attachment ([1]; 100 mM 3-OMG, Thold −6° C.): 31.4±6.6 cells/lane
- percent PI positive cells (membrane integrity) ([1]; 100 mM 3-OMG, Thold −6° C.): 7.3±2.8%
- cell attachment ([1]; 100 mM 3-OMG, Thold −10° C.): 33.6±8.8 cells/lane
- percent PI positive cells (membrane integrity) ([1]; 100 mM 3-OMG, Thold −10° C.): 20.5±12.4%
- cell attachment versus unfrozen controls without CPAs [2]: no statistical significant difference

SMILES: O=C([O-])O.[Na+] [sodium bicarbonate]
- pH change of solution as the result of freezing [3]: became basic

SMILES: OCC(O)CO [glycerol]
- cell death after loading that was not stepwise (FIG. 15A) [4]: majority of cell death evident in endothelial cells
